We go through 34 compounds from patent publication US20170001990A1 (Genentech, Inc., priority 2014, published 2017).

Structures are written as SMILES.

For the assay, the target named is Human recombinant carboxy-terminal his-tagged LDHA (amino acids 2-332) (Homo sapiens, UniProt P00338). As to the kind of experiment: LDHA enzyme inhibition assay (NADH fluorescence). Conditions: LDHA IC50 (μM), 1 nM LDHA, NADH and pyruvate, stereochemistry of tested sample given.
As for `COc1cccc(Oc2cccc(C3(c4ccsc4)CC(=O)C(Sc4ccccc4Cl)C(=O)N3)n2)c1` (stereo not shown) [Example 64, 3-(2-chlorophenyl)sulfanyl-6-[6-(3-methoxyphenoxy)-2-pyridyl]-6-(3-thienyl) piperidine-2,4-dione], the IC50 was 0.126 µM. The figure for `CCC1CN(c2ccc(C3(c4ccsc4)CC(=O)C(Sc4ccccc4Cl)C(=O)N3)cc2)CCO1` (stereo not shown) [Example 66, 3-(2-chlorophenyl)sulfanyl-6-[4-(2-ethylmorpholin-4-yl)phenyl]-6-(3-thienyl) piperidine-2,4-dione] is 0.089 µM; for `O=C1CC(c2ccsc2)(c2cccc(OCc3ccccc3)n2)NC(=O)C1Sc1ccccc1Cl` (stereo not shown) [Example 68, 6′-(benzyloxy)-5-((2-chlorophenyl)thio)-4-hydroxy-2-(thiophen-3-yl)-2,3-dihydro-[2,2′-bipyridin]-6(1H)-one] it is 0.008 µM. The figure for `O=C1CC(c2ccsc2)(c2cccc(Oc3cccnc3)n2)NC(=O)C1Sc1ccccc1Cl` (stereo not shown) [Example 71, 3-((2-chlorophenyl)thio)-6-(6-(pyridin-3-yloxy)pyridin-2-yl)-6-(thiophen-3-yl)piperidine-2,4-dione] is 0.056 µM; for `O=C1CC(c2ccc(N3CCC(F)(F)CC3)cc2)(c2ccsc2)NC(=O)C1Sc1ccccc1Cl` (stereo not shown) [Example 72, 3-(2-chlorophenyl)sulfanyl-6-[4-(4,4-difluoro-1-piperidyl)phenyl]-6-(3-thienyl)piperidine-2,4-dione] it is 0.025 µM; for `CC(C)Oc1nc(C2(c3ccsc3)CC(=O)C(Sc3ccccc3Cl)C(=O)N2)ccc1N1CCOCC1` (stereo not shown) [Example 73, 3-((2-chlorophenyl)thio)-6-(6-isopropoxy-5-morpholinopyridin-2-yl)-6-(thiophen-3-yl) piperidine-2,4-dione] it is 0.111 µM. The value for `CCOc1cccc(C2(c3ccsc3)CC(=O)C(Sc3ccccc3Cl)C(=O)N2)n1` (stereo not shown) [Example 74, 3-(2-chlorophenyl)sulfanyl-6-(6-ethoxy-2-pyridyl)-6-(3-thienyl)piperidine-2,4-dione] was 0.014 µM; that for `CC(C)COc1cccc(C2(c3ccsc3)CC(=O)C(Sc3ccccc3Cl)C(=O)N2)n1` (stereo not shown) [Example 75, 3-(2-chlorophenyl)sulfanyl-6-(6-isobutoxy-2-pyridyl)-6-(3-thienyl)piperidine-2,4-dione] was 0.07 µM.

In the case of `O=C1CC(c2ccsc2)(c2cccc(Oc3ccc(OC(F)(F)F)cc3)n2)NC(=O)C1Sc1ccccc1Cl` (stereo not shown) [Example 76, 3-(2-chlorophenyl)sulfanyl-6-(3-thienyl)-6-[6-[4-(trifluoromethoxy)phenoxy]-2-pyridyl] piperidine-2,4-dione], the IC50 came to 0.015 µM. The figure for `O=C1CC(c2ccsc2)(c2cccc(Oc3cccc(F)c3)n2)NC(=O)C1Sc1ccccc1Cl` (stereo not shown) [Example 80, 3-(2-chlorophenyl)sulfanyl-6-[6-(3-fluorophenoxy)-2-pyridyl]-6-(3-thienyl) piperidine-2,4-dione] is 0.056 µM.

`O=C1CC(c2ccsc2)(c2cccc(OCCC3CC3)n2)NC(=O)C1Sc1ccccc1Cl` (stereo not shown) [Example 81, 3-((2-chlorophenyl)thio)-6-(6-(2-cyclopropyl-ethoxy)pyridin-2-yl)-6-(thiophen-3-yl)piperidine-2,4-dione]: the IC50 worked out at 0.229 µM. The figure for `CN(C)c1cccc(C2(c3ccsc3)CC(=O)C(Sc3ccccc3Cl)C(=O)N2)n1` (stereo not shown) [Example 85, 3-((2-chlorophenyl)thio)-6-(6-(dimethylamino)pyridin-2-yl)-6-(thiophen-3-yl)piperidine-2,4-dione] is 0.018 µM; for `O=C1CC(c2ccsc2)(c2cccc(Oc3cccc4cccnc34)n2)NC(=O)C1Sc1ccccc1Cl` (stereo not shown) [Example 88, 33-(2-chlorophenyl) sulfanyl-6-[6-(8-quinolyloxy)-2-pyridyl]-6-(3-thienyl)piperidine-2,4-dione] it is 0.017 µM. The figure for `O=C1CC(c2ccsc2)(c2cccc(Oc3cccc4ccncc34)n2)NC(=O)C1Sc1ccccc1Cl` (stereo not shown) [Example 89, 3-(2-chlorophenyl)sulfanyl-6-[6-(8-iso-quinolyloxy)-2-pyridyl]-6-(3-thienyl)piperidine-2,4-dione] is 0.018 µM; for `O=C1CC(c2ccsc2)(c2cccc(Oc3cccc4cnccc34)n2)NC(=O)C1Sc1ccccc1Cl` (stereo not shown) [Example 90, 3-((2-chlorophenyl)thio)-6-(6-(isoquinolin-5-yloxy)pyridin-2-yl)-6-(thiophen-3-yl)piperidine-2,4-dione] it is 0.013 µM; for `O=C1C[C@](c2ccsc2)(c2cccc(OCCC3CC3)n2)NC(=O)C1Sc1ccccc1Cl` (stereo partly drawn) [Example 92, (6S)-3-((2-chlorophenyl)thio)-6-(6-(2-cyclopropyl-ethoxy)pyridin-2-yl)-6-(thiophen-3-yl)piperidine-2,4-dione] it is 0.007 µM. The figure for `COCc1ccccc1Oc1cccc(C2(c3ccsc3)CC(=O)C(Sc3ccccc3Cl)C(=O)N2)n1` (stereo not shown) [Example 94] is 0.023 µM; for `O=C1C[C@@](c2ccsc2)(c2cccc(OCCC3CC3)n2)NC(=O)C1Sc1ccccc1Cl` (stereo partly drawn) [Example 95, (6R)-3-((2-chlorophenyl)thio)-6-(6-(2-cyclo-propylethoxy)pyridin-2-yl)-6-(thiophen-3-yl) piperidine-2,4-dione] it is 0.29 µM.

Consider `O=C1CC(c2ccsc2)(c2cccc(Oc3ccccn3)n2)NC(=O)C1Sc1ccccc1Cl` (stereo not shown) [Example 96, 3-(2-chlorophenyl)sulfanyl-6-[6-(2-pyridyloxy)-2-pyridyl]-6-(3-thienyl) piperidine-2,4-dione], for which the half-inhibitory concentration (IC50) was 0.019 µM. The figure for `O=C1CC(c2ccsc2)(c2cccc(Oc3ccc(F)c4cccnc34)n2)NC(=O)C1Sc1ccccc1Cl` (stereo not shown) [Example 98, 3-(2-chlorophenyl)sulfanyl-6-[6-[(5-fluoro-8-quinolyl)oxy]-2-pyridyl]-6-(3-thienyl)piperidine-2,4-dione] is 0.167 µM; for `O=C1CC(c2ccsc2)(c2cccc(Oc3cccc4cccnc34)n2)NC(=O)C1Sc1ccccc1Cl` (stereo not shown) [Example 100, 3-((2-chlorophenyl)thio)-6-(6-(quinolin-8-yloxy)pyridin-2-yl)-6-(thiophen-3-yl)piperidine-2,4-dione] it is 0.046 µM.

On to `COCc1ccccc1Oc1cccc(C2(c3ccsc3)CC(=O)C(Sc3ccccc3Cl)C(=O)N2)n1` (stereo not shown) [Example 101], for which the IC50 is 0.018 µM. The figure for `O=C1CC(c2ccsc2)(c2cccc(Oc3cccc4c3NCCC4)n2)NC(=O)C1Sc1ccccc1Cl` (stereo not shown) [Example 102, 3-(2-chlorophenyl)sulfanyl-6-[6-(1,2,3,4-tetrahydro-quinolin-8-yloxy)-2-pyridyl]-6-(3-thienyl) piperidine-2,4-dione] is 0.018 µM; for `O=C1CC(c2ccsc2)(c2cccc(Oc3cccc4[nH]ncc34)n2)NC(=O)C1Sc1ccccc1Cl` (stereo not shown) [Example 103, 3-(2-chlorophenyl)sulfanyl-6-[6-(1H-indazol-4-yloxy)-2-pyridyl]-6-(3-thienyl) piperidine-2,4-dione] it is 0.141 µM. The figure for `O=C1CC(c2ccsc2)(c2cccc(N3CCCc4cccc(O)c43)n2)NC(=O)C1Sc1ccccc1Cl` (stereo not shown) [Example 105, 3-(2-chlorophenyl)sulfanyl-6-[6-(8-hydroxy-3,4-dihydro-2H-quinolin-1-yl)-2-pyridyl]-9-(3-thienyl)piperidine-2,4-dione] is 0.125 µM; for `O=C1CC(c2ccc(N3CCC(F)CC3)cc2)(c2ccsc2)NC(=O)C1Sc1ccccc1Cl` (stereo not shown) [Example 107, 3-(2-chlorophenyl)sulfanyl-6-[4-(4-fluoro-1-piperidyl)phenyl]-6-(3-thienyl)piperidine-2,4-dione] it is 0.131 µM; for `O=C1CC(c2ccsc2)(c2cccc(Oc3cccc4c3NCCC4)n2)NC(=O)C1Sc1ccccc1Cl` (stereo not shown) [Example 109, 3-((2-chlorophenyl)thio)-6-(6-((1,2,3,4-tetrahydro-quinolin-8-yl)oxy)pyridin-2-yl)-6-(thiophen-3-yl)piperidine-2,4-dione] it is 0.01 µM. The value for `O=C1CC(c2ccsc2)(c2cccc(Oc3cccc4c3NCCC4)n2)NC(=O)C1Sc1ccccc1Cl` (stereo not shown) [Example 111, 3-((2-chlorophenyl)thio)-6-(6-((1,2,3,4-tetrahydro-quinolin-8-yl)oxy)pyridin-2-yl)-6-(thiophen-3-yl)piperidine-2,4-dione] was 0.012 µM. In the case of `O=C1CC(c2ccsc2)(c2cccc(Oc3ccc(F)c(C(F)(F)F)c3)n2)NC(=O)C1Sc1ccccc1Cl` (stereo not shown) [Example 123], the IC50 came to 0.006 µM. The value for `O=C1CC(c2ccsc2)(c2cccc(Cc3ccc(Cl)c(F)c3)n2)NC(=O)C1Sc1ccccc1Cl` (stereo not shown) [Example 130, 6-(6-(4-chloro-3-fluoro-benzyl)pyridin-2-yl)-3-((2-chlorophenyl)thio)-6-(thiophen-3-yl)piperidine-2,4-dione] was 0.005 µM; that for `O=C1CC(c2ccsc2)(c2cccc(NCCC3CC3)n2)NC(=O)C1Sc1ccccc1Cl` (stereo not shown) [Example 131, 3-(2-chlorophenyl)sulfanyl-6-[6-(2-cyclopropyl-ethylamino)-2-pyridyl]-6-(3-thienyl)piperidine-2,4-dione] was 0.046 µM. The value for `O=C1CC(c2ccsc2)(c2cccc(NCCC3CC3)n2)NC(=O)C1Sc1ccccc1Cl` (stereo not shown) [Example 138, 3-(2-chlorophenyl)sulfanyl-6-[6-(2-cyclopropyl-ethylamino)-2-pyridyl]-6-(3-thienyl)piperidine-2,4-dione] was 0.025 µM.

On to `O=C1CC(c2ccsc2)(c2cccc(Oc3ccc(F)c(C(F)F)c3)n2)NC(=O)C1Sc1ccccc1Cl` (stereo not shown) [Example 139, 3-(2-chlorophenyl)sulfanyl-6-[6-[3-(difluoro-methyl)-4-fluoro-phenoxy]-2-pyridyl]-6-(3-thienyl) piperidine-2,4-dione], for which the IC50 is 0.009 µM. The value for `O=C1CC(c2ccsc2)(c2cccc(Oc3cccc(C(F)(F)F)c3)n2)NC(=O)C1Sc1ccccc1Cl` (stereo not shown) [Example 140, 3-(2-chlorophenyl)sulfanyl-6-(3-thienyl)-6-[6-[3-(trifluoromethyl)phenoxy]-2-pyridyl]piperidine-2,4-dione] was 0.012 µM.

The IC50 is the concentration at which inhibition is half-maximal.
